Values after ≈ are worked out from the molar mass of the structure shown. Active and inactive are the calls of the source. The rule behind the calls is not given here.
Key:
[1] = Cmax in Sprague-Dawley rat at 2 mg/kg administered via oral gavage measured by LC-MS/MS method; format: ADME, organism-based; set-up: dose 2 mg/kg, route oral; conditions: in vivo
[2] = system: Mycolicibacterium smegmatis; assay: Bactericidal activity against Mycobacterium smegmatis MC2 155 assessed as log reduction in bacterial colonies at 4 times MIC measured after 3 hrs by time-kill assay; format: functional, str. MC2 155
[3] = Oral bioavailability in Sprague-Dawley rat at 2 mg/kg measured by LC-MS/MS method; format: ADME, organism-based; conditions: in vivo
[4] = AUC (0 to infinity) in Sprague-Dawley rat at 2 mg/kg, administered via oral gavage measured by LC-MS/MS method; format: ADME, organism-based; set-up: dose 2 mg/kg, time infinity, route oral; conditions: in vivo
[5] = system: Mycolicibacterium smegmatis; assay: Bactericidal activity against Mycobacterium smegmatis MC2 155 assessed as log reduction in bacterial colonies at 3.2 uM measured after 6 hrs by time-kill assay; format: functional, str. MC2 155
[6] = Selectivity index, ratio of CC50 for human corneal fibroblasts assessed as reduction in ATP level to MIC90 for Mycobacterium smegmatis MC2 155
Lipid bilayer [7] = assay: Induction of membrane damage in CI/DOPG/DOPI large unilamellar vesicles assessed as calcein leakage at 1:2 compound to lipid ratio by fluorescence based […] assay relative to control
[8] = Clearance in Sprague-Dawley rat at 2 mg/kg, iv administered as single bolus dose measured by LC-MS/MS method; format: ADME, organism-based; conditions: in vivo
[9] = system: Mycolicibacterium smegmatis; assay: Induction of membrane integrity impairment in Mycobacterium smegmatis MC2 155 at 2 times MIC by SYTO-9/propium iodide staining based Baclight assay relative to control; format: functional, str. MC2 155
[10] = AUC (0 to infinity) in Sprague-Dawley rat at 2 mg/kg, iv administered as single bolus dose measured by LC-MS/MS method; format: ADME, organism-based; set-up: dose 2 mg/kg, route intravenous, time infinity; conditions: in vivo
Lipid bilayer [11] = assay: Induction of membrane damage in CI/DOPG/DOPI large unilamellar vesicles assessed as calcein leakage at lower compound to lipid ratio by fluorescence based […] assay relative to control
[12] = Terminal half life in Sprague-Dawley rat at 2 mg/kg administered via oral gavage measured by LC-MS/MS method; format: ADME, organism-based; conditions: in vivo, read-out: beta t1/2 (converted)
[13] = Volume of distribution in Sprague-Dawley rat at 2 mg/kg, iv administered as single bolus dose measured by LC-MS/MS method; format: ADME, organism-based; conditions: in vivo
[14] = Terminal half life in Sprague-Dawley rat at 2 mg/kg, iv administered as single bolus dose measured by LC-MS/MS method; format: ADME, organism-based; conditions: in vivo, read-out: beta t1/2 (converted)
[15] = system: Mycolicibacterium smegmatis; assay: Bactericidal activity against Mycobacterium smegmatis MC2 155 assessed as log reduction in bacterial colonies at 2 times MIC measured after 6 hrs by time-kill assay; format: functional, str. MC2 155
[16] = system: Mycolicibacterium smegmatis; assay: Induction of impaired membrane integrity in Mycobacterium smegmatis MC2 155 assessed as reduction in membrane integrity at 0.5 times MIC by SYTO-9/propium iodide stain based Baclight assay relative to control; format: functional, str. MC2 155; set-up: scale not given: the % may be the effect or the level left
[17] = Cmax in Sprague-Dawley rat at 2 mg/kg, iv administered as single bolus dose measured by LC-MS/MS method; format: ADME, organism-based; set-up: dose 2 mg/kg, route intravenous; conditions: in vivo
[18] = system: Mycolicibacterium smegmatis; assay: Induction of membrane integrity impairment in Mycobacterium smegmatis MC2 155 at 2 to 4 times MIC measured after 3 hrs by SYTO-9/propium iodide staining based Baclight assay relative to control; format: functional, str. MC2 155
[19] = system: Mycolicibacterium smegmatis; assay: Bactericidal activity against Mycobacterium smegmatis MC2 155 measured after 2 days by time-kill assay; format: functional; conditions: str. MC2 155
[20] = Tmax in Sprague-Dawley rat at 2 mg/kg administered via oral gavage measured by LC-MS/MS method; format: ADME, organism-based; conditions: in vivo
[21] = Hemolytic activity against New Zealand white rabbit RBC assessed as hemoglobin release measured after 1 hr; format: ADME, cell-based, Oryctolagus cuniculus, Erythrocyte; conditions: red blood cells
[22] = system: Mycolicibacterium smegmatis; assay: Bactericidal activity against Mycobacterium smegmatis MC2 155 assessed as log reduction in bacterial colonies at 2 times MIC measured after 3 hrs by time-kill assay; format: functional, str. MC2 155
[23] = system: Mycolicibacterium smegmatis; assay: Induction of impaired membrane integrity in Mycobacterium smegmatis MC2 155 assessed as reduction in membrane integrity at MIC by SYTO-9/propium iodide stain based Baclight assay relative to control; format: functional, str. MC2 155; set-up: scale not given: the % may be the effect or the level left
[24] = system: Mycolicibacterium smegmatis; assay: Bactericidal activity against Mycobacterium smegmatis MC2 155 assessed as log reduction in bacterial colonies at 4 times MIC measured after 24 hrs by time-kill assay; format: functional, str. MC2 155
[25] = system: Mycobacterium tuberculosis; assay: Antimycobacterial activity against Mycobacterium tuberculosis clinical isolate 01;095 assessed as reduction in 2 log10 bacterial colonies measured after 14 to 21 days by agar dilution method; format: functional
[26] = system: Mycobacterium tuberculosis; assay: Antimycobacterial activity against Mycobacterium tuberculosis H37Rv ATCC 27294 assessed as reduction in 2 log10 bacterial colonies measured after 14 to 21 days by agar dilution method; format: functional
Lipid bilayer [27] = assay: Induction of membrane damage in CI/DOPG/DOPI large unilamellar vesicles assessed as calcein leakage at 1:4 compound to lipid ratio by fluorescence based […] assay relative to control
Lipid bilayer [28] = assay: Induction of membrane damage in CI/DOPG/DOPI large unilamellar vesicles assessed as calcein leakage at 1:8 compound to lipid ratio by fluorescence based […] assay relative to control
[29] = system: Mycolicibacterium smegmatis; assay: Induction of membrane disruption in Mycobacterium smegmatis MC2 155 assessed as increased cytoplasmic membrane permeability at 60 uM up to 3 hrs by Sytox green uptake assay; format: functional; conditions: str. MC2 155

CCCN(CCC)CCCCOc1cc2oc3cc(OCCCCN(CCC)CCC)c(OC)c(CC=C(C)C)c3c(=O)c2c(O)c1CC=C(C)C
Cmax [1]: 320 ng/mL
Activity [2]: 4.15
bioavailability [3]: 14 to 15%
AUC(0-inf) [4]: 3300 ng·h/mL
Activity [5]: 1.6
Selectivity Index [6]: 15 - 40
Activity (Lipid bilayer [7]): 13.3%
CL [8]: 24.7 mL/min/kg
Activity [9]: 78.8%
AUC [10]: 22780 ng·h/mL
Activity (Lipid bilayer [11]): < 10%
half-life [12]: 4.79 h
Vd [13]: 1.28 L/kg
half-life [14]: 9.93 h
Activity [15]: 4.15
Activity [16]: <15%
Cmax [17]: 1500 ng/mL
Activity [18]: >80%
Activity [19]: Dose-dependent effect
Tmax [20]: 4 h
HC50 at 1 h [21]: > 277 µM
Activity [22]: 2.85
Activity [23]: 28%

COc1c(OCCCCN2CCOCC2)cc2oc3cc(OCCCCN4CCOCC4)c(CC=C(C)C)c(O)c3c(=O)c2c1CC=C(C)C
Selectivity Index [6]: 15 - 40
Activity [24]: 2.4
MIC [25]: 4 µg/mL (≈ 5.77 µM)
MIC [26]: 4 µg/mL (≈ 5.77 µM)
HC50 at 1 h [21]: > 289 µM

CCN(CC)CCCCOc1cc2oc3cc(OCCCCN(CC)CC)c(OC)c(CC=C(C)C)c3c(=O)c2c(O)c1CC=C(C)C
Activity (Lipid bilayer [27]): 23.4%
Activity (Lipid bilayer [7]): 47%
Activity (Lipid bilayer [28]): 14.6%
MIC [25]: 4 µg/mL (≈ 6.02 µM)
Activity [29]: Active
Activity [16]: <15%
Activity [18]: >80%
MIC [26]: 2 µg/mL (≈ 3.01 µM)

From ChEMBL document CHEMBL3872220, “Amphiphilic xanthones as a potent chemical entity of anti-mycobacterial agents with membrane-targeting properties” (Eur J Med Chem, 2016)
